Here are results for six molecules from paper PMC6270892, “Penostatin Derivatives, a Novel Kind of Protein Phosphatase 1B Inhibitors Isolated from Solid Cultures of the Entomogenous Fungus Isaria tenuipes” (Molecules, 2014).

The target in experiment [1] is T1, PTP1B (Homo sapiens, UniProt P18031).
T1 sequence (P18031 1-435): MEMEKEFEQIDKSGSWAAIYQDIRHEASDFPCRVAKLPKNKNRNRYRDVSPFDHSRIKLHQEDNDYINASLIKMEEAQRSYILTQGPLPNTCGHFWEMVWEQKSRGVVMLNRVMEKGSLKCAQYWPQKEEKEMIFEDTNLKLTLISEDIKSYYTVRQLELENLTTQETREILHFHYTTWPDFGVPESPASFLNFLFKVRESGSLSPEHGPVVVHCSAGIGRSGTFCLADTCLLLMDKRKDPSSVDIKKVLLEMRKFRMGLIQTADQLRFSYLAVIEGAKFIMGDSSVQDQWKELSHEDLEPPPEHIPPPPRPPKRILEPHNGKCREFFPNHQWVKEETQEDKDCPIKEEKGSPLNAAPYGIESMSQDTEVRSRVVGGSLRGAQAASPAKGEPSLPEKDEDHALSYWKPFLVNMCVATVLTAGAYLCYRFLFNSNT
Kind of experiment: PTP1B inhibition assay (pNPP hydrolysis / Malachite Green). The following applies: for selectivity between PTP1B and LAR: PTP1B versus LAR, in words; for IC50: mean ± SD of three replicates. It counts as biochemical. Here is the method: PTP1B activity was measured as the rate of hydrolysis of p-nitrophenyl phosphate (pNPP) in a 96-well microtiter plate format. […] Inhibitors were added in DMSO at 100 times the final concentration. PTP1B activity was measured as the rate of inorganic phosphate released upon hydrolysis of the IR phosphopeptide, TRDIpYETDpYpYRK, using a Malachite Green method. The enzyme activity was estimated by measuring the absorbance at 405 nm with appropriate corrections. Each experiment was performed either in triplicate, and IC50 data were derived from three independent experiments.
Calculations. PTPase activities, based on a potassium phosphate standard curve, were expressed as nanomoles of phosphate released/min/mg protein. Inhibition of recombinant h-PTP1B by test compounds was calculated as percent of phosphatase control. A four-parameter nonlinear logistic regression of PTPase activities using SAS release 6.08, PROC NLIN, was used for determining IC50 values of the test compounds.

The target in a further experiment is LAR (Homo sapiens, UniProt P10586). Kind of experiment: LAR phosphatase inhibition assay. It counts as biochemical. As to the method: PTP1B activity was measured as the rate of hydrolysis of p-nitrophenyl phosphate (pNPP) in a 96-well microtiter plate format. Standard assays were conducted at room temperature in a total volume of 0.2 mL that contained HEPES buffer (50 mM, pH 7.2), NaCl (50 mM), EDTA (1 mM), DTT (1 mM), bovine serum albumin (1 mg/mL), pNPP (at various concentrations, Km) 1.4 (0.03 mM), and PTP1B (35 ng/mL). Sodium orthovanadate was used as the positive control. Inhibitors were added in DMSO at 100 times the final concentration. PTP1B activity was measured as the rate of inorganic phosphate released upon hydrolysis of the IR phosphopeptide, TRDIpYETDpYpYRK, using a Malachite Green method. The enzyme activity was estimated by measuring the absorbance at 405 nm with appropriate corrections. Each experiment was performed either in triplicate, and IC50 data were derived from three independent experiments.
Sequence of LAR (P10586 30-1907, species assumed): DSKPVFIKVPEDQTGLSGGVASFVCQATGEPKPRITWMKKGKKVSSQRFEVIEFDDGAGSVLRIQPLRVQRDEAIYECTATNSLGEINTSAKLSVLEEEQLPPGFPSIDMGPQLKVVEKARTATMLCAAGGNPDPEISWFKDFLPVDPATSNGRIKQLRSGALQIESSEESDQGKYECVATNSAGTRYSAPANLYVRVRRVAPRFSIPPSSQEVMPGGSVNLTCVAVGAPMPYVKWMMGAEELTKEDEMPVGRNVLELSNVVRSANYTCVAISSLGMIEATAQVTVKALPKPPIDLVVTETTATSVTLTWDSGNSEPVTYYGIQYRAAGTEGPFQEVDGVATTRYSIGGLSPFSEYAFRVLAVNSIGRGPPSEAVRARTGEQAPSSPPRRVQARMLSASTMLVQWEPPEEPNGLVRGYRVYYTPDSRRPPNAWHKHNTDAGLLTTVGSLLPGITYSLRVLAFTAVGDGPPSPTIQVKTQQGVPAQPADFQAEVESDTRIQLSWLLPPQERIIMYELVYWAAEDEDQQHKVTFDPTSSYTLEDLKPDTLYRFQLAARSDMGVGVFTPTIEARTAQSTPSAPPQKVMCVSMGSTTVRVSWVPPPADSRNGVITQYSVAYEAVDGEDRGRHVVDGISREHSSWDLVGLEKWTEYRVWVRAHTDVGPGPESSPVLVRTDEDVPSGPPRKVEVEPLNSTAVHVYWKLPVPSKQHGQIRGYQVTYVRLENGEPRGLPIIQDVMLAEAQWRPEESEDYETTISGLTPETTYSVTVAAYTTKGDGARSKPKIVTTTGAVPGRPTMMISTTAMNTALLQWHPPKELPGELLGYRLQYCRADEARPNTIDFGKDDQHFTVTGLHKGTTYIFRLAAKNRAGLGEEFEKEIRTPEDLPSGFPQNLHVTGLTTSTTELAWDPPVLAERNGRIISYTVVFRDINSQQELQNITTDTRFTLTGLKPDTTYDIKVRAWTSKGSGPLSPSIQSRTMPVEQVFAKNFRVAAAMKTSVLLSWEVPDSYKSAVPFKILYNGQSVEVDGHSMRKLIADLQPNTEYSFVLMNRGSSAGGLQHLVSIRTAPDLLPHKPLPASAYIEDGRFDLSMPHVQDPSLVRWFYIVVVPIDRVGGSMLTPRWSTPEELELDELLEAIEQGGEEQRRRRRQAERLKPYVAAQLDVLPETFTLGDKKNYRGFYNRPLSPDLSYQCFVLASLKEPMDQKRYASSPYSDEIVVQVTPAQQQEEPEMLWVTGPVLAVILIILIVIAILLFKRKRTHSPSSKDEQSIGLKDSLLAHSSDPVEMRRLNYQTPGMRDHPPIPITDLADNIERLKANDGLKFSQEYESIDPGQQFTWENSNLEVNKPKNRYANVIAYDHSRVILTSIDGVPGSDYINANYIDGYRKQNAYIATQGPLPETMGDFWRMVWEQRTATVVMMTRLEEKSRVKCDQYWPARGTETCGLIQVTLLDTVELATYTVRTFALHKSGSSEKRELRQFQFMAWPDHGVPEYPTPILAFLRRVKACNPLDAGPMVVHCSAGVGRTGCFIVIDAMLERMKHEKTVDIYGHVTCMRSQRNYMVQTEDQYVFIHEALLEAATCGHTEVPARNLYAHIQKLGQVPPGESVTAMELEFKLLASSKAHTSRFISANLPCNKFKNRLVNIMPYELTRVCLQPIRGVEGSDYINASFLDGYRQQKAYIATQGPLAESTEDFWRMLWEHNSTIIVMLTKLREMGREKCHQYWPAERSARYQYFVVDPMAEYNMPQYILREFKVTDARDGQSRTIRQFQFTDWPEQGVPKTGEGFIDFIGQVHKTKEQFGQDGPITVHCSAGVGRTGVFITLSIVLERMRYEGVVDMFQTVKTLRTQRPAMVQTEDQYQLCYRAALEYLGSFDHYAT
Activities of LAR were measured as described above except that the HEPES buffer (50 mM) was at pH 6.8, and the enzyme was added at a concentration of 10 μg/mL. Activity of calcineurin (from Sigma Chemical Co.) was assayed using 4-methylumbelliferyl phosphate (0.8 mM) as a substrate in an assay mixture that contained Tris-HCl buffer (40 mM, pH 8.6), NaCl (100 mM), CaCl2 (0.5 mM), DTT (0.5 mM), bovine serum albumin (0.1 mg/mL), calmodulin (50 nM), and calcineurin (25 nM). Sodium orthovanadate was used as the positive control. Fluorescence at 450 nm was monitored with excitation at 400 nm. The color was allowed to develop at room temperature for 30 min, and the sample absorbances were determined at 650 nm using a plate reader (Molecular Devices, Sunnyvale, CA, USA). Each experiment was performed either in triplicate, and IC50 data were derived from three independent experiments.
Calculations. PTPase activities, based on a potassium phosphate standard curve, were expressed as nanomoles of phosphate released/min/mg protein. Inhibition of recombinant h-PTP1B by test compounds was calculated as percent of phosphatase control. A four-parameter nonlinear logistic regression of PTPase activities using SAS release 6.08, PROC NLIN, was used for determining IC50 values of the test compounds. The reported IC50 values show significant fit to the regression curve (p < 0.05).

Experiment [2] deals with PTP1B. Set-up: method as in PMID 20337577. The following applies: cited from earlier work.
[3] abbreviates: tested at 50 μg/mL, read-out: LAR inhibition.

Like-named read-outs stand apart in the source and are kept apart here.

`CCCCCCC/C=C/[C@@H]1O[C@@]2(O)C(=O)C=C3C=CC[C@H]3[C@@H]2C=C1C` [Compound 1, penostatin J]: at PTP1B [1], the “selectivity between PTP1B and LAR” value is “significant selectivity”; the IC50 is 12.5 ± 0.9 µM. The IC50 on LAR (setting [3]) is above 146 µM.
Consider `CCCCCCC/C=C/[C@@H]1O[C@H]2C(=O)C=C3C=CC[C@H]3[C@@H]2C=C1C` [Compound 2, penostatin C], for which the “selectivity between PTP1B and LAR” value at PTP1B [1] is on record as “significant selectivity”. In addition, the IC50 is 0.37 ± 0.05 µM on PTP1B [1] and 53.3 ± 4.06 µM at LAR (mean ± SD of three replicates, read-out: IC50 (μM) LAR).
Turning to `CCCCCCC/C=C/[C@@H]1O[C@H]2C(=O)C=C3C[C@H](O)C[C@H]3[C@@H]2C=C1C` [Compound 3, penostatin A], the figures for the IC50 on PTP1B [1] and at LAR (setting [3]) were 15.9 ± 2.49 µM and above 145 µM, respectively.
Take `CCCCCCC/C=C/[C@@H]1O[C@H]2C(=O)C=C3C[C@@H](O)C[C@H]3[C@@H]2C=C1C` [Compound 4, penostatin B]: the IC50 at PTP1B [1] was 33.7 ± 7.33 µM; on LAR (setting [3]), above 145 µM.
For `CC(C)[C@@H](CC[C@@H](C)[C@H]1CC[C@H]2[C@@H]3[C@H](O)C[C@H]4C[C@@H](NCCCNCCCCNCCCN)CC[C@]4(C)[C@H]3CC[C@]12C)OS(=O)(=O)O` [MSI-1436], the IC50 with PTP1B [2] was […].
In the case of `Cc1cc(-c2c3ccccc3c(Br)c3sc(C)c(C)c23)cc(C)c1O[C@H](Cc1ccccc1)C(=O)O` [ertiprotafib], in the experiment on PTP1B [2], the IC50 is 1.6 µM.
